Assay results as given in patent US20080299098A1, “Broad-Spectrum Antibacterial and Antifungal Activity of Lactobacillus Johnsonii D115” (priority 2007, published 2008).
Like-named read-outs stand apart in the source and are kept apart here.

Assays:
Brachyspira pilosicoli = details: for Plate count: hydrogen peroxide 3300 μM
[1] = tested on: Brachyspira hyodysenteriae; details: for Plate count: hydrogen peroxide 3100 μM
[2] = hydrogen peroxide at approximately 3,000 μM, 2 h

OO [hydrogen peroxide]
Plate count (Brachyspira pilosicoli; 0 hr): 6.00 × 10^6 CFU per ml
Plate count (Brachyspira pilosicoli; 2 hr): 3.00 × 10^1 CFU per ml
reduction of count (Brachyspira pilosicoli; [2]): 5 logs
Plate count ([1]; 0 hr): 5.0 × 10^5 CFU per ml
Plate count ([1]; 2 hr): 9 CFU per ml
reduction of count [1, 2]: 4 logs
